Among the data in US20240199676A1, “ANTIVIRAL COMPOUNDS AND METHODS OF MAKING AND USING THE SAME” (Gilead Sciences, Inc., priority 2022, published 2024) are EC50 and half-life values, retold here.

In general, pEC50 refers to the EC50 on a negative log10 scale, so that one unit is a factor of ten.

Data set [1] has as its system Respiratory syncytial virus recombinant with luciferase (RSV-Luc5) in HEp-2 cells. Kind of data set: HEp-2 RSV-Luc5 384-well Assay (EC50 RSVFLUC Hep2-384 v2, Ex. V). Type of data set: cell-based. The note with it: human respiratory syncytial virus, HEp-2, 72 h, read-out: EC50 RSV FLuc Hep-2 384 V2 (per Ex. V). An excerpt: Example V: HEp-2 RSV-Luc5 384-well Assay (EC50 RSVFLUC Hep2-384 v2)
HEp-2 cell line was purchased from ATCC (Manassas, VA Cat #CCL-23) and maintained in Dulbecco's […] (DMEM) (Corning, New York, NY, Cat #15-018CM) supplemented with 10% fetal bovine serum (FBS) (Hyclone, Logan, UT, Cat #SH30071-03) and 1× Penicillin-Streptonycin-L-Glutamine (Corning, New York, NY, Cat #30-009-CI). Cells were passaged 2 times per week to maintain sub-confluent densities and were used for experiments at passage 5-20. Respiratory syncytial virus recombinant with luciferase (RSV-Luc5) (≥1 ×107 TCID50/ml) was purchased from Microbiologics (Saint Cloud, MN). Viral replication was determined in HEp-2 cells in the following manner.
Compounds are prepared in 100% DMSO in 384-well polypropylene plates (Greiner, Monroe, NC, Cat #784201) with 8 compounds per plate in grouped replicates of 4 at 10 serially diluted concentrations (1:3). The serially diluted compounds were transferred to low dead volume Echo plates (Labcyte, Sunnyvale, CA, Cat #LP-0200).
The test compounds were spotted to 384-well assay plates (Greiner, Monroe, NC, Cat#781091) at 200 nL per well. HEp-2 cells were harvested and suspended in DMEM (supplemented with 10% FBS and 1× Penicillin-Streptonycin-L-Glutamine) and seeded to the pre-spotted assay plates at 4,000 cells per well in 30 μL. RSV-Luc5 viruses were diluted in DMEM (supplemented with 10% FBS and 1× Penicillin-Streptomycin-L-Glutamine) at 200,000 Infectious Units (IU) per mL and 10 μL per well was added to the assay plates containing cells and compounds, for an MOI=0.5. The assay plates were incubated for 3 days at 37° C. and 5% CO2. At the end of incubation, One-Glo reagent (Promega, Madison, WI, Cat #E6120) was prepared. The assay plates and One-Glo reagent were equilibrated to room temperature for at least 15 minutes. 40 μL per well of One-Glo reagent was added and the plates were incubated at room temp for 15 minutes before reading the luminescence signal on an EnVision multimode plate reader (Perkin Elmer, Waltham, MA). Remdesivir was used as positive control and DMSO was used as negative control. Values were normalized to the positive and negative controls (as 0% and 100% replication, respectively) and data was fitted using non-linear regression analysis by Gilead's dose response tool. The EC50 value for each compound was then determined as the concentration reducing the viral replication by 50%.

Data set [2] is described as follows: GI S9 stability (Ex. Z), human intestinal S9. The settings on record: pooled intestinal S9 fractions; human intestinal S9, 1.0 mg/mL protein, 2 μM substrate, pH 7.4; read-out: GIS9 Human T½ (per Ex. Z). Type of data set: in vitro ADME. On the procedure:
Example Z: GI S9 stability data:
Stock solutions of test compounds in dimethyl sulfoxide (DMSO) having a final concentration of 10 mM were prepared and used in all experiments. Sekisui XenoTech (Kansas City, KS) provided pooled intestinal S9 fractions. All other chemicals were purchased from Sigma-Aldrich (St. Louis, MO) or VWR (West Chester, PA). Internal Standard/Quench (IS/Q) used to stop reactions was 100 nM labetalol in (by volume) methanol (10%) and acetonitrile (90%).
Stability in Intestinal S9 Fractions: Duplicate aliquots of test compound or positive control substrate were added to S9 stock diluted with phosphate buffered saline (137 mM NaCl, 2.7 mM KCl, 10 mM phosphate buffer), pH 7.4, to obtain a protein concentration of 1.0 mg/mL. The metabolic reactions were initiated by the addition of the substrates to the S9 reaction mixture to a final concentration of 2 μM. At 0, 10, 20, 30, 60 and 120 min, 25 μL aliquots of the reaction mixture were transferred to plates containing 225 μl of IS/Q solution. After quenching, the plates were centrifuged at 3000×g for 30 minutes. 150 μL aliquots of each supernatant were dried down then reconstituted with 300 μL water. Aliquots (10 μL) of the prepared samples were analyzed on a Thermo Q-Exactive mass spectrometer as described below.
Liquid Chromatography—Mass Spectrometry: Quantification of test compounds and control substrate was performed by analyte/internal standard peak area ratio (PAR) values measured on a Thermo Q-Exactive mass spectrometer coupled to a Dionex UltiMate 3000 HPLC with a Leap Technologies HTC PAL autosampler. The column used for analysis was a Waters Acquity BEH C18 (1.7 μm particle size, 2.1×50 mm). Mobile phase A consisted of 0.1% (v/v) formic acid in water. Mobile phase B consisted of 0.1% (v/v) formic acid in acetonitrile. Elution of analytes was achieved by a series of linear gradients varying the proportions of A and B. The mass spectrometer was calibrated on a weekly basis and mass tolerance of 5 ppm was used.
Metabolic stabilities in S9 fractions were determined by measuring the rates of disappearance of test compound and positive control substrate.
Data (% of substrate remaining) were plotted on a semi-log scale and fitted using an exponential decline model:
Where Ct—% of substrate remaining at time=t; C0—% of substrate remaining at time=0; t—time; T½—half-life The Half-life (T½) is determined by the following equation: […]
Assuming a first-order reaction, the slope (k) is extrapolated from the aforementioned plotted data.

pEC50: −log10 of the molar value.

Take `N#C[C@]1(COC(=O)C2CCCCC2)O[C@@H](c2ccc3c(N)ncnn23)[C@H](O)[C@@H]1O` [Compound 19, ((2R,3S,4R,5S)-5-(4-aminopyrrolo[2,1-f][1,2,4]triazin-7-yl)-2-cyano-3,4-dihydroxytetrahydrofuran-2-yl)methyl cyclohexanecarboxylate]: the negative logarithm of the EC50 (pEC50) in data set [1] is 4.74. In data set [2], the half-life at 2 μM was 13 min.
For `CC(C)(C)CCC(=O)OC[C@@]1(C#N)O[C@@H](c2ccc3c(N)ncnn23)[C@H](O)[C@@H]1O` [Compound 36, ((2R,3S,4R,5S)-5-(4-aminopyrrolo[2,1-f][1,2,4]triazin-7-yl)-2-cyano-3,4-dihydroxytetrahydrofuran-2-yl)methyl 4,4-dimethylpentanoate] the same measures were 4.93 and 11 min.
Consider `CC1(C(=O)OC[C@@]2(C#N)O[C@@H](c3ccc4c(N)ncnn34)[C@H](O)[C@@H]2O)CCC1` [Compound 24, ((2R,3S,4R,5S)-5-(4-aminopyrrolo[2,1-f][1,2,4]triazin-7-yl)-2-cyano-3,4-dihydroxytetrahydrofuran-2-yl)methyl 1-methylcyclobutane-1-carboxylate], for which the pEC50 in data set [1] was 4.92.
Consider `CC(=O)OC[C@@]1(C#N)O[C@@H](c2ccc3c(N)ncnn23)[C@H](O)[C@@H]1O` [Compound 4, ((2R,3S,4R,5S)-5-(4-aminopyrrolo[2,1-f][1,2,4]triazin-7-yl)-2-cyano-3,4-dihydroxytetrahydrofuran-2-yl)methyl acetate], for which the negative-log EC50 (pEC50) in data set [1] is 4.81. Further, in data set [2], the half-life at 2 μM turned out to be 23 min.
For `CC(C)(C)CC(=O)OC[C@@]1(C#N)O[C@@H](c2ccc3c(N)ncnn23)[C@H](O)[C@@H]1O` [Compound 13, ((2R,3S,4R,5S)-5-(4-aminopyrrolo[2,1-f][1,2,4]triazin-7-yl)-2-cyano-3,4-dihydroxytetrahydrofuran-2-yl)methyl 3,3-dimethylbutanoate] the same measures were 4.30 and 789 min.
For `CC(C)[C@H](N)C(=O)OC[C@@]1(C#N)O[C@@H](c2ccc3c(N)ncnn23)[C@H](O)[C@@H]1O` [Compound 12, ((2R,3S,4R,5S)-5-(4-aminopyrrolo[2,1-f][1,2,4]triazin-7-yl)-2-cyano-3,4-dihydroxytetrahydrofuran-2-yl)methyl L-valinate] the same measures were 4.72 and 2 min.
As for `CCCC(=O)OC[C@@]1(C#N)O[C@@H](c2ccc3c(N)ncnn23)[C@H](O)[C@@H]1O` [Compound 6, ((2R,3S,4R,5S)-5-(4-aminopyrrolo[2,1-f][1,2,4]triazin-7-yl)-2-cyano-3,4-dihydroxytetrahydrofuran-2-yl)methyl butyrate], the pEC50 in data set [1] is 4.77. The half-life at 2 μM in data set [2] was found to be 8 min.
For `CC(C)C(=O)OC[C@@]1(C#N)O[C@@H](c2ccc3c(N)ncnn23)[C@H](OC(=O)C(C)C)[C@@H]1OC(=O)C(C)C` [Compound 20, (2R,3S,4S,5S)-5-(4-aminopyrrolo[2,1-f][1,2,4]triazin-7-yl)-2-cyano-2-((isobutyryloxy)methyl)tetrahydrofuran-3,4-diyl bis(2-methylpropanoate)] the same measures were 4.52 and 3 min.
For `CC1(C)CC(C(=O)OC[C@@]2(C#N)O[C@@H](c3ccc4c(N)ncnn34)[C@H](O)[C@@H]2O)C1` [Compound 17, ((2R,3S,4R,5S)-5-(4-aminopyrrolo[2,1-f][1,2,4]triazin-7-yl)-2-cyano-3,4-dihydroxytetrahydrofuran-2-yl)methyl 3,3-dimethylcyclobutane-1-carboxylate] the same measures were 4.71 and 13 min.
On to `CC(C)C(=O)O[C@H]1[C@H](c2ccc3c(N)ncnn23)O[C@](C#N)(COC(=O)c2ccccc2)[C@H]1O` [Compound 22, ((2R,3S,4R,5S)-5-(4-aminopyrrolo[2,1-f][1,2,4]triazin-7-yl)-2-cyano-3-hydroxy-4-(isobutyryloxy)tetrahydrofuran-2-yl)methyl benzoate], for which, in data set [1], the pEC50 was 4.49.
Take `[H]/N=c1/c2ccc([C@@H]3O[C@](C#N)(CO)[C@@H](O)[C@H]3O)n2ncn1COC(=O)C(C)C` [Compound 34, (7-((2S,3R,4S,5R)-5-cyano-3,4-dihydroxy-5-(hydroxymethyl)tetrahydrofuran-2-yl)-4-iminopyrrolo[2,1-f][1,2,4]triazin-3(4H)-yl)methyl isobutyrate]: the pEC50 in data set [1] is under 4.30.
For the molecule `CC[C@@H](C)C(=O)OC[C@@]1(C#N)O[C@@H](c2ccc3c(N)ncnn23)[C@H](O)[C@@H]1O` [Compound 37, ((2R,3S,4R,5S)-5-(4-aminopyrrolo[2,1-f][1,2,4]triazin-7-yl)-2-cyano-3,4-dihydroxytetrahydrofuran-2-yl)methyl (R)-2-methylbutanoate], the pEC50 in data set [1] is 4.83.
On the same count and under the same terms, for `CC(C)(C)CC(=O)Nc1ncnn2c([C@@H]3O[C@](C#N)(COC(=O)CC(C)(C)C)[C@@H](O)[C@H]3O)ccc12` [Compound 26, ((2R,3S,4R,5S)-2-cyano-5-(4-(3,3-dimethylbutanamido)pyrrolo[2,1-f][1,2,4]triazin-7-yl)-3,4-dihydroxytetrahydrofuran-2-yl)methyl 3,3-dimethylbutanoate] the value was 4.33; for `CCC(C)(C)CC(=O)OC[C@@]1(C#N)O[C@@H](c2ccc3c(N)ncnn23)[C@H](O)[C@@H]1O` [Compound 27, ((2R,3S,4R,5S)-5-(4-aminopyrrolo[2,1-f][1,2,4]triazin-7-yl)-2-cyano-3,4-dihydroxytetrahydrofuran-2-yl)methyl 3,3-dimethylpentanoate], 4.91; for `CC(C)(CF)C(=O)OC[C@@]1(C#N)O[C@@H](c2ccc3c(N)ncnn23)[C@H](O)[C@@H]1O` [Compound 29, ((2R,3S,4R,5S)-5-(4-aminopyrrolo[2,1-f][1,2,4]triazin-7-yl)-2-cyano-3,4-dihydroxytetrahydrofuran-2-yl)methyl 3-fluoro-2,2-dimethylpropanoate], 4.54.
Same read-out and setting: then `CC(=O)OC[C@@]1(C#N)O[C@@H](c2ccc3c(NC(=O)C(C)C)ncnn23)[C@H](O)[C@@H]1O` [Compound 23, ((2R,3S,4R,5S)-2-cyano-3,4-dihydroxy-5-(4-isobutyramidopyrrolo[2,1-f][1,2,4]triazin-7-yl)tetrahydrofuran-2-yl)methyl acetate], with 4.48.
